# Results taken from publication PMC10786919, “Design-rules for stapled peptides with in vivo activity and their application to Mdm2/X antagonists” (Nature Communications, 2024).
# Read-outs that look alike come from different tables or passages of the source. Non-standard residues stand in square brackets, D forms with d. Residues, ends and D or L forms follow the SMILES beside them. Aib = CC(C)(N)C(=O)O
# Legend:
# [1] = tested on: p53 responsive β-lactamase reporter in HCT116 cells; experiment: cells; type: cell-based; conditions: read-out: p53 reporter assay: EC50
# Method in brief: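 HCT116 cells stably carrying a p53-responsive β-lactamase reporter, seeded at 8000 cells/well, with 0.5% DMSO final. Reporter activity read by ToxBLAzer Dual Screen. Values are geometric means of at least three biological replicates.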
# [2] = Lactate dehydrogenase (LDH) release assay; type: cell-based
# Method in brief: (§1)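 Read-out was lactate dehydrogenase release, reflecting loss of membrane integrity, in reporter-engineered HCT116 cells (p53-responsive β-lactamase) seeded at 8000 cells per well. Final DMSO was 0.5%, and reported values are geometric means from three or more biological repeats.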
# HCT116 cells = experiment: Lactate dehydrogenase (LDH) release assay; type: cell-based
# Method in brief: as §1
# [3] = tested on: Jump-In T-REx CHO-K1 BLA cells; experiment: cells; type: cell-based
# [4] = Solubility assay (kinetic solubility, PBS pH 7); type: physicochemical; conditions: pH 7, PBS; for solubility kinetic: pH 7, aqueous buffer, kinetic from dmso stock, read-out: Solubility
# Method in brief: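 Values derive from peak-area ratios of sample versus a 100 µM standard, scaled by that standard's concentration.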
# [5] = Circular dichroism (CD) helicity; type: physicochemical
# Description: A total of 5 µL of the 10 mM stock peptide was mixed with 45 µL of 100% methanol, and dried for 2 h in the SpeedVac concentrator (Thermo Scientific). The dried peptide was reconstituted in a buffer (1 mM Hepes pH 7.4 and 5% methanol) to a concentration of 1 mM. The peptide sample was placed in a quartz cuvette with a path length of 0.2 cm. The peptide concentration was determined by the absorbance of the peptide at […]. The CD spectrum was recorded from 300 to 190 nm using the Chirascan-plus qCD machine (Applied Photophysics, Surrey, UK), at 25 °C. All experiments were done in duplicates. The CD spectrum was converted to mean residue ellipticity before deconvolution and estimation of the secondary structure components of the peptide using the CDNN software (distributed by Applied Photophysics). Measurements were taken at least twice and were reported as arithmetic means.
# Ca Ski cell line = conditions: read-out: Cell Proliferation assay EC50; p53 Mut, Ca-Ski
# Method in brief: (§2)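 Compound dilution series (10 points, 3-fold, 10 mM top stock in DMSO) tested on overnight-plated Ca Ski cells in RPMI1640/10% FBS and on blasticidin-selected p53RE-bla HCT-116 cells in McCoy's 5A; read-out was CellTiter-Glo 2.0 luminescence after room-temperature equilibration.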
# [6] = tested on: CellSensor p53RE-bla HCT-116 Cell Line; conditions: read-out: Cell Proliferation assay EC50; p53 WT, HCT116
# Method in brief: as §2
# physchem [7] = experiment: physchem
# [8] = Experimental LogD (partition coefficient); conditions: for logD: not stated, Partition Coeff LogD
# [9] = Nanoclick permeability assay
# Method in brief: (§3)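 Azido-peptide permeability was read as loss of NanoBRET signal (donor 450 nm, acceptor 610 nm) after adding NanoBret618-azide at 10 μM final.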
# [10] = tested on: cells transiently transfected with the NanoLuc-HaloTag vector; experiment: Nanoclick permeability assay; conditions: 4Hr
# Method in brief: as §3
# physchem [11] = experiment: physchem; remark: listed apart in the source
# [12] = 0% FBS 4Hr, read-out: LDH: Cytotoxicity assay: EC50
# [13] = 0% FBS 4Hr, read-out: TETCHO: Counterscreen EC50
SMILES,EC50 ([1]; 0% FBS 4Hr) [nM],"EC50 [2, 12] [nM]",LDH: Cytotoxicity assay: % Effect (HCT116 cells; 0% FBS 4Hr) [%],TETCHO: Counterscreen % Effect ([3]; 0% FBS 4Hr) [%],"EC50 [3, 13] [nM]",solubility kinetic [4] [µM],CD % Helicity [5] [%],EPSA (physchem [7]) [A^2],logD [8],Nanoclick permeability assay % Effect [10] [%],other results
"CC(=O)N[C@@H](CCCCN=[N+]=[N-])C(=O)NCCC(=O)N[C@@H](CC(C)C)C(=O)N[C@H](C(=O)N[C@@H](Cc1ccccc1)C(=O)N[C@]1(C)CCCCCCC=CCCC[C@@](C)(C(=O)N[C@@H](CO)C(=O)N[C@@H](C)C(=O)N[C@@H](C)C(N)=O)NC(=O)[C@H](CC2CCC2)NC(=O)[C@H](CCC(N)=O)NC(=O)[C@H](Cc2c[nH]cn2)NC(=O)[C@H](Cc2c[nH]c3ccccc23)NC(=O)[C@H](Cc2ccc(O)cc2)NC(=O)[C@H](CCC(=O)O)NC1=O)[C@@H](C)O [MP-496, AZIDE-ATSP-7041 (A8H)]",1610,> 50600,33.4,34.53,2830,20,32.75,214,2.63,,"EC50 ([1]; 0% FBS 16Hr): 1670 nM; TETCHO Counterscreen % Effect ([3]; 4 hours, 0% serum, efficacy at 50 μM relative to tetracycline control): 34.53%; EC50 ([3]; 4 hours, 0% serum, read-out: TETCHO Counterscreen EC50): 2800 nM; off-target effects (LDH release and/or counterscreen activity) ([3]; Supplementary Table 1, 0% serum, 4 hours): none; EC50 (Ca Ski cell line): > 49800 nM; EC50 [6]: 1540 nM"
CC(=O)N[C@@H](CCCCN=[N+]=[N-])C(=O)NCCC(=O)N[C@@H](CC(C)C)C(=O)N[C@H](C(=O)N[C@@H](Cc1ccccc1)C(=O)N[C@]1(C)CCCCCCC=CCCC[C@@](C)(C(=O)N[C@@H](CO)C(=O)N[C@@H](C)C(=O)N[C@@H](C)C(N)=O)NC(=O)[C@H](CC2CCC2)NC(=O)[C@H](CCC(N)=O)NC(=O)[C@H](C)NC(=O)[C@H](Cc2c[nH]c3ccccc23)NC(=O)[C@H](Cc2ccc(O)cc2)NC(=O)[C@@H]2CCCN2C1=O)[C@@H](C)O [MP-8834],,> 50600,1.728,11.7,,,21.9,187,3.03,129.4,cell entry EC50 [9]: 312 nM
CC(=O)N[C@@H](CC(C)C)C(=O)N[C@H](C(=O)N[C@@H](Cc1ccccc1)C(=O)NC(C)(C)C(=O)N[C@@H](CCC(=O)O)C(=O)N[C@@H](Cc1ccc(O)cc1)C(=O)N[C@@H](Cc1c[nH]c2ccccc12)C(=O)N[C@@H](C)C(=O)N[C@@H](CCC(N)=O)C(=O)N[C@@H](CC(C)C)C(=O)NC(C)(C)C(=O)N[C@@H](CO)C(N)=O)[C@@H](C)O [MP-790] (Ac-LTF[Aib]EYWAQL[Aib]S-NH2),> 50600,,,9.13,> 50600,88,19,176,2.11,-7.015,EC50 ([2]; LDH: Cytotoxicity assay: EC50): > 50600 nM; LDH: Cytotoxicity assay: % Effect (HCT116 cells): -1.73%; TETCHO: Counterscreen % Effect ([3]; 0% FBS 16Hr): 119.2%
CC(=O)N[C@@H](CC(C)C)C(=O)N[C@H](C(=O)N[C@@H](Cc1ccccc1)C(=O)N[C@]1(C)CCCCCCC=CCCC[C@@](C)(C(=O)N[C@@H](CO)C(=O)N[C@@H](C)C(=O)N[C@@H](C)C(=O)NCCCCCC(N)=O)NC(=O)[C@H](CC2CCC2)NC(=O)[C@H](CCC(N)=O)NC(=O)[C@H](C)NC(=O)[C@H](Cc2c[nH]c3ccccc23)NC(=O)[C@H](Cc2ccc(O)cc2)NC(=O)[C@H](CCC(=O)O)NC1=O)[C@@H](C)O [MP-670],,,,,,,,,,,EC50 ([2]; LDH: Cytotoxicity assay EC50): > 50000 nM; Solubility [4]: Poorly Behaved; EPSA (physchem [11]): 193 A^2; Partition Coeff LogD [8]: Poorly Behaved
